According to article PMC11998406 (BMC Chemistry, 2025):

Experiments:
BChE = BChE (Equus caballus, UniProt P81908); assay: Kinetic study of BChE inhibition; assay type: biochemical, horse; conditions: 13s at 0, 5, 20, 40 µM; butyrylthiocholine iodide 187.5-3000 µM
[1] = tested on: SH-SY5Y neuroblastoma cell line; assay: Cell viability; assay type: cell-based; conditions: up to 25 µM

BChE, sequence (P81908 whole entry): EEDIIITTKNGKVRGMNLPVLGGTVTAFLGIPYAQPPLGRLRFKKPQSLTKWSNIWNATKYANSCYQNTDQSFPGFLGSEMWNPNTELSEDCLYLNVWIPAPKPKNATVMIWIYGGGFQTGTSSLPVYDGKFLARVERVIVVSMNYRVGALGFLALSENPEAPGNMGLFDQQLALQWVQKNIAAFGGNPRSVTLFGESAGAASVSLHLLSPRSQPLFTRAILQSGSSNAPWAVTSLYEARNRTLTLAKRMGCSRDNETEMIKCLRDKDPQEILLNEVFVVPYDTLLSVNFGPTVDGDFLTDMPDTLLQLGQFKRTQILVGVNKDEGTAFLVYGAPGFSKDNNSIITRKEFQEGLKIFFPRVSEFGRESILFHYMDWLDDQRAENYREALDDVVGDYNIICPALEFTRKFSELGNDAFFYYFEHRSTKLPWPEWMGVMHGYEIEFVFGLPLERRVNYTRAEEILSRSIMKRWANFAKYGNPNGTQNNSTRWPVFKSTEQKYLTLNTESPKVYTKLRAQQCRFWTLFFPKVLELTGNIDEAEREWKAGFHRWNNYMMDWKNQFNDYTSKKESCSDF

**Q.** Which results are given for `Cc1ccc(Cn2cc(COc3ccc(-c4nnc(-c5ccc([N+](=O)[O-])cc5)o4)cc3)nn2)cc1` [Compound 13s, 2-(4-((1-(4-Methylbenzyl)-1 H-1,2,3-triazol-4-yl)methoxy)phenyl)-5-(4-nitrophenyl)-1,3,4-oxadiazole]?
**A.** mechanism of BChE inhibition (Lineweaver-Burk) (BChE): competitive inhibition pattern; toxicity [1]: no toxicity
